Measurements taken from article PMC8658889, “Seriniquinones as Therapeutic Leads for Treatment of BRAF and NRAS Mutant Melanomas” (Molecules, 2021).
pIC50: −log10 of the molar value. Like-named read-outs stand apart in the source and are kept apart here.

How the values were obtained:
SK-MEL-147 [1] = test: Trypan blue exclusion test (cell viability); format: cell-based, Human; conditions: for number of viable cells: SK-MEL-147, 24-h treatment, 1.0, 2.5 or 5.0 µM
Experimental: (§1) Fifty thousand (5 × 10^4) cells in 1 mL of media were seeded in cell culture dishes and, 24 h later, treated with SQ1 or SQ2 (1.0, 2.5, and 5.0 µM), vehicle (DMSO) and doxorubicin (DOX, positive control) for 24 h. Cells were detached, stained with Trypan Blue solution 0.4% (1:10, v/v; Sigma-Aldrich, St. Louis, MO, USA) and counted in a Neubauer chamber under optical microscopy to determine concentrations of viable and non-viable cells.

SK-MEL-28 [2] = test: Trypan blue exclusion test (cell viability); format: cell-based, Human; conditions: SK-MEL-28, 24-h treatment, 1.0, 2.5 or 5.0 µM
Experimental: as §1

SK-MEL-28 [3] = test: Clonogenic assay; format: cell-based, Human; conditions: SK-MEL-28, 24 h treatment at half IC50 and IC50, 6 days in drug-free medium
Experimental: (§2) […] (2.5 × 10^5) cells in 1 mL of media were seeded in cell culture dishes and, 24 h later, treated with SQ1 (0.3 µM and 0.6 µM for SK-MEL-28 and 0.9 µM and 1.8 µM for SK-MEL-147) or SQ2 (0.05 µM and 0.1 µM for SK-MEL-28 and 0.6 µM and 1.2 µM for SK-MEL-147) for 24 h. Doxorubicin (DOX; 1.4 µM for SK-MEL-28 and 0.8 µM for SK-MEL-147) was used as positive control and 0.5% DMSO as negative control.
After the cells were submitted to the treatment scheme (Section 4.6), adherent cells were collected, plated at 1 × 10^3 cell/plate on 35-mm plates and maintained in culture for 6 days in treatment-free medium. The medium was replaced every 2 days. Cells were then fixed and stained with a solution of 20% MeOH (Synth, Diadema, São Paulo, Brazil) and 0.5 g crystal violet (Sigma-Aldrich, St. Louis, MO, USA). Images were acquired using G:BOX Chemi XRQ (Syngene, Cambridge, UK) and quantified using the ImageJ program (ColonyArea; US National Institutes of Health, Bethesda, MD, USA).

DCD gene [4] = test: DCD gene expression by qPCR in SK-MEL-28; format: cell-based, Human; conditions: SK-MEL-28, 24 h
Experimental: as §2
(§3) Treated cells (Section 4.6) had their total RNA extracted and purified using TRIzol reagent (Thermo Fisher Scientific, San Jose, CA, USA), in accordance with the manufacturer’s recommendations. For analysis of DCD expression, purified total RNA was quantified using an Eon Microplate Spectrophotometer (BioTek Instruments, Winooski, VT, USA). Quantitative PCR (qPCR) was conducted on a Rotor Gene 6000 real-time cycler (Corbett Life Science, Sydney, NSW, Australia) using GoTaq 1-Step RT-qPCR System (Promega, Madison, WI, EUA). The cycle conditions were as follows: 45 °C for 10 min, 95 °C for 15 min and 40 cycles of 95 °C for 15 s; 60 °C for 60 s, followed by the melt. Relative expression was calculated using the comparative CT method Delta-Delta-Ct (DDCt). The primer sequences and concentrations utilized (DCD and RPLPO) can be consulted in Table S3.

DCD gene [5] = test: DCD gene expression by qPCR in SK-MEL-147; format: cell-based, Human; conditions: SK-MEL-147, 24 h
Experimental: as §2, §3

SK-MEL-147 [6] = test: Western blotting of apoptosis and autophagy markers; format: cell-based, Human; conditions: SK-MEL-147, 24 h
Experimental: as §2
(§4) Treated cells (Section 4.6) had their proteins extracted with the following solution: 10 mM ethylenediaminetetraacetic acid (EDTA), 10% triton, 2 mM phenylmethanesulfonyl fluoride (PMSF), 10 mM Tris base, 10 mM sodium pyrophosphate, 100 mM sodium fluoride, 2.5 mM sodium orthovanadate, and deionized water. The resulting extract was quantified for protein concentration and 30 µg of protein were subjected to SDS-PAGE and to Western blot analysis with the indicated antibodies: cleaved PARP-1 (#5625), PARP1 (#9542), cleaved caspase-3 (#9604), caspase-3 (#9662), SQSTM1/p62 (#5114), LC3B (#2775), and α-tubulin (#2144) from Cell Signaling Technology (Danvers, MA, USA). Images of membranes were made using Pierce ECL Western Blotting Substrate (Thermo Fisher Scientific, San Jose, CA, USA) and G:BOX Chemi XRQ (Syngene, Cambridge, UK). Band intensities were quantified using UN-SCAN-IT gel 6.1 software (Silk Scientific; Orem, UT, USA).

SK-MEL-28 [7] = test: as above; format: cell-based, Human; conditions: SK-MEL-28, 24 h
Experimental: as §2, §4

[8] = set-up: method as in PMID 30783501; conditions: organic and aqueous media, cited from earlier work
MRC-5 = test: MTT cytotoxicity assay; conditions: MRC-5 non-tumor fibroblasts, 72 h treatment, MTT

| SMILES | number of viable cells (SK-MEL-147 [1]) | number of viable cells (SK-MEL-28 [2]) | reduction of the colony levels (SK-MEL-28 [3]) | DCD expression increase relative to control (DCD gene [4]; 0.3 µM) | DCD expression increase relative to control (DCD gene [4]; 0.6 µM) | DCD expression relative to control (DCD gene [5]; 1.8 µM) | apoptotic markers (cleaved PARP-1, cleaved caspase-3) (SK-MEL-147 [6]) | apoptotic markers (cleaved PARP-1, cleaved caspase-3) (SK-MEL-28 [7]) | autophagic flux (p62) (SK-MEL-28 [7]) | solubility [8] | solubility ([8]; listed as seriniquinone) | pIC50 (MRC-5; Homo sapiens, MRC5, 72 h) | pIC50 (MRC-5) | proportion of non-viable cells (SK-MEL-147 [1]; SK-MEL-147, 24 h, 2.5 and 5.0 µM) | DCD expression up-regulation relative to control (DCD gene [4]; 0.1 µM) | DCD overexpression relative to control (DCD gene [5]; 1.2 µM) |
| --- | --- | --- | --- | --- | --- | --- | --- | --- | --- | --- | --- | --- | --- | --- | --- | --- |
| O=c1c2ccccc2c(=O)c2c1sc1c(=O)c3ccccc3c(=O)c12 [SQ1, seriniquinone] | significantly reducing the number of viable cells | significantly reducing the number of viable cells | greater than 50% | twofold | 20 times | twofold | increase of typical apoptotic markers | increase of typical apoptotic markers | extinction of p62 | lack of solubility | poor water-solubility | 6.19 | 6.22 | – | – | – |
| CC(C)(O)C(O)CCc1ccc2c(=O)c3sc4c(=O)c5ccccc5c(=O)c4c3c(=O)c2c1 (stereo not shown) [SQ2] | significantly reducing the number of viable cells | significantly reducing the number of viable cells | – | – | – | – | increase of typical apoptotic markers | increase of typical apoptotic markers | – | improved solubility | – | 5.80 | – | significantly higher | three | eight |
